Data published in ChEMBL document CHEMBL2380304, “Synthesis of 2-methoxybenzoylhydrazone and evaluation of their antileishmanial activity” (Bioorg Med Chem Lett, 2013).
pIC50: −log10 of the molar value.

Test system: Leishmania major
Test: Antileishmanial activity against promastigotes of Leishmania major after 72 hrs by Neubauer counting chamber-based microscopic analysis
Format: functional, organism-based

SMILES | pIC50
COc1ccccc1C(=O)N/N=C/c1ccccn1 | 4.22
COc1ccccc1C(=O)N/N=C/c1ccncc1 | 4.12
COc1ccccc1C(=O)N/N=C/c1ccc(Br)c(F)c1 | 4.11
COc1ccc(/C=N/NC(=O)c2ccccc2OC)cc1 | 4.40
COc1ccccc1C(=O)N/N=C/c1ccc(Cl)cc1 | 4.16
COc1ccccc1C(=O)N/N=C/c1cccc(O)c1O | 4.17
COc1ccccc1C(=O)N/N=C/c1cc(O)ccc1O | 4.46
COc1ccccc1C(=O)N/N=C/c1ccc(O)cc1O | 4.05
COc1ccccc1C(=O)N/N=C/c1ccc(O)cc1 | 4.24
COc1ccc(/C=N/NC(=O)c2ccccc2OC)cc1O | 4.34
COc1ccccc1C(=O)N/N=C/c1ccc(OC)c(O)c1I | 4.20
COc1cc(/C=N/NC(=O)c2ccccc2OC)cc(OC)c1 | 4.27

Stronger by pIC50, values ahead:

pIC50 | SMILES
4.81 | COC(=O)c1ccc(/C=N/NC(=O)c2ccccc2OC)cc1
4.50 | COc1ccccc1C(=O)N/N=C/c1cc(O)c(O)c(O)c1
5.48 | COc1ccccc1C(=O)N/N=C/c1ccc(O)c(O)c1
5.12 | COc1ccc(/C=N/NC(=O)c2ccccc2OC)cc1Br
4.88 | COc1ccc(/C=N/NC(=O)c2ccccc2OC)cc1OC
5.71 | COc1ccccc1C(=O)N/N=C/c1cccnc1
5.60 | COc1ccccc1C(=O)N/N=C/c1cccs1
4.50 | COc1ccccc1C(=O)N/N=C/c1ccc([N+](=O)[O-])cc1
4.88 | COc1ccc(/C=N/NC(=O)c2ccccc2OC)c(O)c1
5.29 | N=C(N)c1ccc(OCCCCCOc2ccc(C(=N)N)cc2)cc1 [PENTAMIDINE]
